Results published in patent publication US7592144B2, “Bacterial ligand-binding sensor” (The Trustees of Princeton University, priority 2005, dated 2009).
Entries after “also recorded” stand apart in the source; their conditions may differ.

Legend:
[1] = target: T1, human thyroid hormone receptor beta ligand-binding domain (Homo sapiens, UniProt P10828); test: Paper disk growth test of cells harboring pMIT::TR* on thymineless agar plates; assay type: cell-based; conditions: 30 degrees Celsius, approximately 50 hours, disks saturated in 10 millimolar solutions
T1 construct: expressed in transfected cells; host or cells: E. coli D1210(delta)thyA carrying pMIT::TR*
T1 sequence (P10828 203-461): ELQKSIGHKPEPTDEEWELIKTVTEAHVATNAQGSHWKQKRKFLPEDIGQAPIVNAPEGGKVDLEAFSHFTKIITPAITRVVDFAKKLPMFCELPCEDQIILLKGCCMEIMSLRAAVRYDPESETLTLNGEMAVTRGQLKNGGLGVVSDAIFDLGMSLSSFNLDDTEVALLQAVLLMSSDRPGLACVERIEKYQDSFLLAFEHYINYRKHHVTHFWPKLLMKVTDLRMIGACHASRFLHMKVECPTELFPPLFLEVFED
Procedure: (§1) FIG. 2 consists of FIGS. 2A, 2B, 2C, and 2D. FIG. 2A is a graph that depicts ligand effects on the growth phenotypes of E. coli D1210(delta)thyA cells carrying the pMIT::ER* vector in 50 milliliter cultures of liquid thymineless medium at 34 degrees Celsius. […] Varying concentrations of estrogen were dissolved in dimethylsulfoxide to allow precise control of dosing. Experiments were carried out in duplicate and errors bars represent one standard deviation from the mean value. FIG. 2C is a graph that depicts ligand effects on the growth phenotypes of cells harboring pMIT::TR* in 50 milliliter cultures of liquid thymineless medium at 34 degrees Celsius. FIG. 2D is an image that depicts ligand effects on the growth phenotypes of cells harboring pMIT::TR* and incubated on thymineless agar plates at 30 degrees Celsius for approximately 50 hours. […] In the experiment corresponding to FIG. 2D, the paper disks applied were allowed to saturate in 10 millimolar solutions of estrogen and thyroid hormone prior to applying them to the medium.
In this case a lawn of cells was plated onto thymineless medium and exposed to small paper disks impregnated with either estrogen or thyroid hormone.

[2] = target: T2, human estrogen receptor alpha ligand-binding domain (Homo sapiens, UniProt P03372); test: Growth phenotype of E. coli D1210(delta)thyA cells carrying pMIT::ER* in liquid thymineless medium; assay type: cell-based; conditions: 34 degrees Celsius, ligand 10 micromolar
T2 construct: expressed in transfected cells; host or cells: E. coli D1210(delta)thyA carrying pMIT::ER*
T2 sequence (P03372 301-553): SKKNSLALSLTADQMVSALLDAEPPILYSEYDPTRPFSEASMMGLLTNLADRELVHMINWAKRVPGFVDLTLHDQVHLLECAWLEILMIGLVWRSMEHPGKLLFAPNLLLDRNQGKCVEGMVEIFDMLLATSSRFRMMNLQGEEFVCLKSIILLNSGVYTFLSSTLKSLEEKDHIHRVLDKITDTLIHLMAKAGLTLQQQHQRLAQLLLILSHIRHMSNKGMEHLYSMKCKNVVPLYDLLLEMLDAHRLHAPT
Procedure: as §1
(§2) All experiments were carried out at least in duplicate.

[3] = target: T1, human thyroid hormone receptor beta ligand-binding domain; test: Growth phenotype of E. coli D1210(delta)thyA cells carrying pMIT::TR* in liquid thymineless medium; assay type: cell-based; conditions: 34 degrees Celsius, ligand 10 micromolar
Procedure: as §1, §2

[4] = target: T2, human estrogen receptor alpha ligand-binding domain; test: Detection of antagonism: pMIT::ER* cells grown in the presence of E2 plus increasing concentrations of test compound; assay type: cell-based; conditions: 10 micromolar E2, liquid thymineless medium, 34 degrees Celsius, OD600 at 15 hours
Procedure: FIG. 4 is a graph showing antagonism of estrogen agonists and antagonists. […] Relative cell growth was determined by OD600 at 15 hours in 5 milliliter cultures of liquid thymineless medium at 34 degrees Celsius.
as §2

ER = target: T3, ER (Homo sapiens, UniProt P03372); test: Hormone-dependent growth with inteinless MBP-ER-TS fusion
T3 sequence (P03372 301-553): T2 sequence (P03372 301-553)

effect on cell growth when combined with estrogen agonist [4]	behaviour (agonist/antagonist) with inteinless fusion (ER)	Compound	colony formation around ligand-impregnated paper disk [1]	ligand effect on cell growth [2]	ligand effect on cell growth [3]
–	–	17-beta-estradiol [E2]	no colonies could be observed	–	–
–	–	CC(=O)[C@H]1CC[C@H]2[C@@H]3CCC4=CC(=O)CC[C@]4(C)[C@H]3CC[C@]12C [progesterone]	–	no effect on cell growth	no effect on cell growth
inhibitory effects	estrogen super-agonist	4-hydroxytamoxifen	–	–	–
–	–	N[C@@H](Cc1ccc(Oc2cc(I)c(O)c(I)c2)c(I)c1)C(=O)O [T3, 3,3′,5′-triiodo-L-thyronine]	clear colonies were observed	insensitive; also recorded: enhance growth only in cell cultures expressing the TR fusion	able to grow only in the presence; also recorded: able to enhance growth
